{"source": "patent EP0326134A1", "about": "“4-Amino-2,3-disubstituted-6,7-dihydro-5H-1-pyridine derivatives, process for their preparation and medicaments containing them” (NAUCHNO-ISSLEDOVATELSKY INSTITUT TEKHNOLOGII I BEZOPASNOSTI …, priority 1988, dated 1989)", "key": {"[1]": {"assay": "Acute toxicity, single intraperitoneal injection, probit analysis (LD50)", "assay_type": "in vivo, Mäusen", "details": "mouse, in vivo, ip, mice, i.p., read-out: LD50", "description": "Ihre akute Toxizität wurde an Mäusen (einmalige intraperitoneale Injektion) nach der Methode der Probit-Analyse nach Zichtfield, Wilcoxon, t949 untersucht. In Tabelle 2 sind die Parameter der akuten Toxizität (LDso) angegeben, die eine mäßige Toxizität der erfindungsgemäßen Verbindungen belegen."}, "[2]": {"assay": "Side effects and CNS/behaviour: tremor (TD50), sedative and m-cholinomimetic effects", "assay_type": "in vivo", "details": "in vivo", "description": "Von Interesse ist der Einfluß der erfindungsgemäßen Verbindungen auf das ZNS und das Verhalten der Tiere."}, "[3]": {"tested_on": "durch Skopolamin hervorgerufene Amnesie", "assay": "Dark avoidance assay (passive avoidance), scopolamine-induced amnesia", "assay_type": "in vivo, Mäusen", "details": "mice, compound s.c. 5 min before learning, Skopolamin i.p. 30 min before"}, "[4]": {"tested_on": "Nerven-Muskel-Präparat von Mäusen (n.peroneus-m.extensor digitorum longus)", "assay": "Neuromuscular transmission in isolated nerve-muscle preparation (EPP, minEPP)", "how_it_was_run": "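Mouse peroneal nerve–extensor digitorum longus preparation, isolated and perfused with O2/CO2-gassed Lilly solution. EPPs and spontaneous minEPPs were recorded by magnetograph, then analysed by computer for frequency, amplitude and duration.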"}, "Uterus der Ratte": {"tested_on": "Uterus der Ratte", "assay": "Contractile activity of smooth muscle: rat uterus", "details": "Konzentration 1.10^-5 Mol, n = 9; for activity at 10 µM: Rattus norvegicus", "description": "(§1) In Versuchen an glattmpskulären Organen (Uterus, Samenleiter der Ratte und Krummdarm des Meerschweinchens) wurden die Wirkung der erfindungsgemäßen Verbindungen auf die kontraktile Aktivität der glatten Muskeln und ihre Reaktionen auf den Einfluß von Acetylcholin, Serotonin, Adrenalin und KCI als Agonisten untersucht. Mit Hilfe eines Schreibers wurden die Amplitude und die Dauer der Kontraktion der glatten Muskeln unter Verwendung eines Geräts vom Typ Mechanstron-untersucht."}, "Samenleiter der Ratte": {"tested_on": "Samenleiter der Ratte", "assay": "Contractile activity of smooth muscle: rat vas deferens", "details": "Rattus norvegicus, Samenleiter der Ratte; Konzentration 1.10^-5 Mol; n = 9; read-out: Adrenalin 1.10^-6: Amplitude, % bezogen auf d.Kontrolle", "description": "as §1"}, "[5]": {"molecular_target": "T1, Acetylcholinesterase menschlicher Erythrozyten (Homo sapiens, UniProt P22303)", "T1 construct": "Acetylcholin-esteraseinhi-bierung bei menschlichen Erythrozyten; from tissue; host or cells: human erythrocytes", "T1 sequence (P22303 other isoform, or with tags, fused parts or gaps)": "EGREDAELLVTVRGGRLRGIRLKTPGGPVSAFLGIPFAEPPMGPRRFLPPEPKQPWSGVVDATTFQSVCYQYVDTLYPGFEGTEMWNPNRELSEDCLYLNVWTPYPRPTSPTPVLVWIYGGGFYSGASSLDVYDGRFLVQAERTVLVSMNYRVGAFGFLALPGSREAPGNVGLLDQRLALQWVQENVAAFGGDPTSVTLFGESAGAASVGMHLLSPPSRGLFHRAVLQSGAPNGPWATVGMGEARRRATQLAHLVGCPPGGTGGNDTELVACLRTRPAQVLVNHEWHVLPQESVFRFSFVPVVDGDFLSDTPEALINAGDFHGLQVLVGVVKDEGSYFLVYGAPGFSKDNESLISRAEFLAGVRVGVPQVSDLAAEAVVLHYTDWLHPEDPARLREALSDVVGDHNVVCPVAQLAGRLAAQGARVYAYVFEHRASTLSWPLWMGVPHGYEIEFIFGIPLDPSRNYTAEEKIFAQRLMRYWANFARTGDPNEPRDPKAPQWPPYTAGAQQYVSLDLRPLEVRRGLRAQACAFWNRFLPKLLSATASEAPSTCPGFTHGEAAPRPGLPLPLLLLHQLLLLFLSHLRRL", "assay": "Acetylcholinesterase inhibition, spectrophotometric", "assay_type": "biochemical", "details": "Acetylcholinesteraseinhibierung bei menschlichen Erythrozyten IK, (Mol), human erythrocyte enzyme", "description": "Untersucht wurden die Wirkmechanismen der erfindungsgemäßen Verbindungen: • 1. Die Wirkung auf Acetylcholinesterase menschlicher Erythrozyten auf spektrofotometrischem Wege. • 2."}, "[6]": {"tested_on": "K -Durchlässigkeit der Membrane des Ranvier-Schnürringes", "assay": "K+ permeability of the node of Ranvier membrane, voltage clamp", "set-up": "species or system Frosches", "details": "node of Ranvier, frog sciatic nerve fibres, voltage clamp; concentration giving 50 % block of ion permeability; read-out: Blockierung der K^+-Durchlässigkeit der Membrane Ic50 (Mol)", "description": "(§2) Untersucht wurden die Wirkmechanismen der erfindungsgemäßen Verbindungen: • 1. Die Wirkung auf Acetylcholinesterase menschlicher Erythrozyten auf spektrofotometrischem Wege. • 2. Die Wirkung auf die K - und Na -Durchlässigkeit der Membrane des Ranvier-Schnürringes (s. Fox T.M. et al. \"Modification of ionic membrane currrents of Ranvier nodes by UV-radiation under voltage clamp conditions\", Experientia, 27, 1289-1290 /1971/ und Arhom P. et al. \"Local anesthetics: effects on permeability properties of nodal membrane in myelynated nerve fibres from xenopus\". Acta physiol. Scand. 91, 11-21 /1974/) der Nervenfasern des Hüftnervs des Frosches unter Anwendung der Methode der Messung der Membranspannung (Voltage-clampmethode) (s. Derksen H.E. \"Axon membrane voltage fluctuations\", Acta Physiol., Pharmacol Neer, 13, 373-466 /1965/).\n(§3) Alle erfindungsgemäßen Verbindungen sind Blocker für die K^+-Durchlässigkeit der Membrane analog dem Amyridin. Die Salze der bicyclischen Basen blockieren jedoch stärker die Na -Durchlässigkeit der Membrane, was sich mit ihren sedativen und analgetischen Eigenschaften in Verbindung bringen läßt."}, "[7]": {"tested_on": "Na -Durchlässigkeit der Membrane des Ranvier-Schnürringes", "assay": "Na+ permeability of the node of Ranvier membrane, voltage clamp", "set-up": "species or system Frosches", "details": "node of Ranvier, frog sciatic nerve fibres, voltage clamp; concentration giving 50 % block of ion permeability; read-out: Blockierung der Na^+-Durchlässigkeit der Membrane Ic50 (Mol)", "description": "as §2, §3"}}, "note": "Read-outs that look alike come from different tables or passages of the source."}
{"smiles": "Nc1c2c(nc3c1CCC3)CCCCC2", "note": "[Verbindung 38]", "values": [{"measurement": "LD50", "setting": "[1]", "result": 49, "unit": "mg/kg"}, {"measurement": "selectivity ratio", "setting": "[2]; ED50 = dose blocking the effect of Skopolamin in 50 % of the animals (passive avoidance, mice), read-out: Verhältnis TD50 zu ED50", "result": 7.6}, {"measurement": "TD50", "setting": "[2]; toxic dose causing tremor in 50 % of the animals", "result": 17, "unit": "mg/kg"}, {"measurement": "Einfluß auf das Gedächtnis: Zahl der Tiere in %, bei denen die Skopolaminwirkung aufgehoben wurde", "setting": "[3]", "result": 70, "unit": "%"}, {"measurement": "Stimulierung der Nerven-Muskelübertragung, in % der Amplitude: EPP", "setting": "[4]; EPP = Endplattenpotential", "result": 28, "unit": "%"}, {"measurement": "Stimulierung der Nerven-Muskelübertragung, in % der Amplitude: minEPP", "setting": "[4]; minEPP", "result": 52, "unit": "%"}, {"measurement": "activity at 10 µM", "setting": "Uterus der Ratte; Uterus der Ratte (as head prints), ditto mark -\"- repeats unverändert, read-out: Acetylcholin 1.10^-6 (Mol): Amplidude, % bezogen auf d. Kontrolle", "result": 125, "unit": "%"}, {"measurement": "activity at 10 µM", "setting": "Uterus der Ratte; Uterus der Ratte, read-out: Serotonin 1.10^-6 (Mol): Amplitude, % bezogen auf die Kontrolle", "result": 180, "unit": "%"}, {"measurement": "Acetylcholin 1.10^-6 (Mol): Dauer, Min.", "setting": "Uterus der Ratte; Uterus der Ratte (as head prints)", "result": "20±0.6", "unit": "Min."}, {"measurement": "Serotonin 1.10^-6 (Mol): Dauer, Min.", "setting": "Uterus der Ratte; Uterus der Ratte", "result": "25±0.8", "unit": "Min."}, {"measurement": "activity at 10 µM", "setting": "Samenleiter der Ratte", "result": 145, "unit": "%"}, {"measurement": "Ki", "setting": "[5]", "result": 0.48, "unit": "µM"}, {"measurement": "IC50", "setting": "[6]", "result": 580, "unit": "µM"}, {"measurement": "IC50", "setting": "[7]", "result": 4500, "unit": "µM"}]}
